Test results reported in PubChem BioAssay (NCI).
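Method: 48-hour compound exposure of cells in 96-well plates, five concentrations, linear interpolation of endpoints. GI50 marks 50% less growth. TGI denotes the concentration required for complete inhibition of growth.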 Where a SMILES comes first, the peptide text is derived from it. Bridges are numbered along the chain shown (N, C = ends). [ ]: non-standard residue; d: D form. The star is where a group is joined. ξ: configuration not given here. ξDab(CH2SO3H) = NC(CCNCS(=O)(=O)O)C(=O)O; Heptanoyl(6-Me) = CC(C)CCCCC(=O)*; Dab = NCC[CH](N)C(=O)O

Assays:
Assay in all cases: NCI-60 cell line screen, 48 h
[1] = test system: SNB-19 CNS
[2] = test system: ACHN renal
[3] = test system: MOLT-4 leukemia
[4] = test system: IGROV1 ovarian
[5] = test system: OVCAR-5 ovarian
[6] = test system: SNB-75 CNS
[7] = test system: UO-31 renal
[8] = test system: SK-MEL-5 melanoma
[9] = test system: DU-145 prostate
[10] = test system: SK-OV-3 ovarian

C[C@]12CC[C@@H]3c4cc(O)c(O)cc4CC[C@H]3[C@@H]1CC[C@@H]2O
GI50 [1]: 11.1 µM
TGI [1]: > 100 µM
GI50 [2]: 8.94 µM
TGI [2]: 54.5 µM
GI50 [3]: 3.51 µM
TGI [3]: 77.2 µM
GI50 [4]: 11 µM
TGI [4]: > 91.3 µM
GI50 [5]: 25 µM
TGI [5]: > 100 µM
GI50 [6]: 1.55 µM
TGI [6]: 8.32 µM
GI50 [7]: 5.68 µM
TGI [7]: 77.8 µM
GI50 [8]: 3.54 µM
TGI [8]: 16.1 µM
GI50 [9]: 4.46 µM
TGI [9]: > 100 µM
GI50 [10]: 4.19 µM
TGI [10]: 61.8 µM

O=C(/C(=C/c1ccc([N+](=O)[O-])cc1)SCc1ccc(Cl)cc1)c1ccc(F)cc1
GI50 [1]: 1.87 µM
TGI [1]: 4.11 µM
GI50 [2]: 1.76 µM
TGI [2]: 3.33 µM
GI50 [3]: 2.83 µM
TGI [3]: > 100 µM
GI50 [4]: 3.93 µM
TGI [4]: 22.3 µM
GI50 [5]: 3 µM
TGI [5]: 12.1 µM
GI50 [6]: 16.1 µM
TGI [6]: 65.6 µM
GI50 [7]: 1.96 µM
TGI [7]: 13.6 µM
GI50 [8]: 2.85 µM
TGI [8]: 8.87 µM
GI50 [9]: 13.8 µM
TGI [9]: > 57.3 µM
GI50 [10]: 16.6 µM
TGI [10]: 63.5 µM

O=C(NC(=O)c1ccccc1[N+](=O)[O-])Nc1ccc(Oc2ncc(Cl)cn2)c([N+](=O)[O-])c1
TGI [1]: > 100 µM
TGI [2]: > 100 µM
TGI [3]: > 100 µM
TGI [4]: > 71.8 µM
TGI [5]: > 100 µM
TGI [6]: 0.313 µM
TGI [7]: > 95.7 µM
TGI [8]: > 14.1 µM
TGI [9]: > 100 µM
TGI [10]: > 69.3 µM

CCC(C)C1NC(=O)C(CCNCS(=O)(=O)O)NC(=O)C(NC(=O)C(CCNCS(=O)(=O)O)NC(=O)C(NC(=O)C(CCNCS(=O)(=O)O)NC(=O)CCCCC(C)C)C(C)O)CCNC(=O)C(C(C)O)NC(=O)C(CCNCS(=O)(=O)O)NC(=O)C(CCNCS(=O)(=O)O)NC(=O)C(C(C)CC)NC1=O (stereo unspecified) ({Heptanoyl(6-Me)}-[ξDab(CH2SO3H)]T[ξDab(CH2SO3H)][Dab][ξDab(CH2SO3H)]II[ξDab(CH2SO3H)][ξDab(CH2SO3H)]T; lactam 4-C; configuration not given here)
GI50 [1]: 11.6 µM
TGI [1]: > 25 µM
GI50 [2]: > 25 µM
TGI [2]: > 25 µM
GI50 [3]: 8.47 µM
TGI [3]: > 25 µM
GI50 [4]: 13.1 µM
TGI [4]: > 25 µM
GI50 [5]: 24 µM
TGI [5]: > 25 µM
GI50 [6]: 1.58 µM
TGI [6]: > 25 µM
GI50 [7]: > 25 µM
TGI [7]: > 25 µM
GI50 [8]: 1.96 µM
TGI [8]: 11.4 µM
GI50 [9]: 7.09 µM
TGI [9]: 23.2 µM
GI50 [10]: 8.13 µM
TGI [10]: > 25 µM

N/C(=N/N=C/c1ccccc1)N/N=C\c1ccccc1
GI50 [1]: > 100 µM
TGI [1]: > 100 µM
GI50 [2]: 6.4 µM
TGI [2]: > 100 µM
GI50 [3]: 4.39 µM
TGI [3]: 47.3 µM
GI50 [4]: 8.6 µM
TGI [4]: > 100 µM
GI50 [5]: 19.4 µM
TGI [5]: > 100 µM
GI50 [6]: 9.67 µM
TGI [6]: > 100 µM
GI50 [7]: 5.1 µM
TGI [7]: 78.3 µM
GI50 [8]: 3.38 µM
TGI [8]: 13.3 µM
GI50 [9]: 5.54 µM
TGI [9]: 92.7 µM
GI50 [10]: 6.37 µM
TGI [10]: > 100 µM

COc1cc(-c2oc3c(OC)cc(OC)c(O)c3c(=O)c2OC)cc(OC)c1OC
TGI [1]: > 100 µM
TGI [2]: > 100 µM
TGI [3]: > 100 µM
TGI [4]: > 100 µM
TGI [5]: > 100 µM
TGI [6]: 5.06 µM
TGI [7]: > 100 µM
TGI [8]: > 100 µM
TGI [9]: > 100 µM
TGI [10]: 22.9 µM

CCCCCCCCC/C(=N\NC(=O)c1ccncc1)c1ccc(O)c(O)c1O
GI50 [1]: 0.272 µM
TGI [1]: > 100 µM
GI50 [2]: 0.0734 µM
TGI [2]: > 100 µM
GI50 [3]: 0.246 µM
TGI [3]: 25.3 µM
GI50 [4]: 0.184 µM
TGI [4]: > 78.1 µM
GI50 [5]: 0.765 µM
TGI [5]: 78.6 µM
GI50 [6]: 0.631 µM
TGI [6]: > 100 µM
GI50 [7]: 0.0745 µM
TGI [7]: > 29.3 µM
GI50 [8]: 0.139 µM
TGI [8]: 0.494 µM
GI50 [9]: 0.274 µM
TGI [9]: > 100 µM
GI50 [10]: 0.246 µM
TGI [10]: > 100 µM

CN(C)CCCCC(C(=O)CBr)(c1ccccc1)c1ccccc1
GI50 [1]: 7.43 µM
TGI [1]: 23.9 µM
GI50 [2]: 1.48 µM
TGI [2]: 3.03 µM
GI50 [3]: 1.92 µM
TGI [3]: 5.67 µM
GI50 [4]: 3.6 µM
TGI [4]: 15.6 µM
GI50 [5]: 3.06 µM
TGI [5]: 10.9 µM
GI50 [6]: 1.87 µM
TGI [6]: 13.9 µM
GI50 [7]: 1.27 µM
TGI [7]: 2.79 µM
GI50 [8]: 2.53 µM
TGI [8]: 8.68 µM
GI50 [9]: 1.66 µM
TGI [9]: 3.63 µM
GI50 [10]: 6.63 µM
TGI [10]: 19.4 µM

COc1ccc2c(O)c(/C=C3\N=Nc4ccccc43)oc2c1C[C@@H]1CCNC[C@H]1F
GI50 [1]: 9.29 µM
TGI [1]: 28.2 µM
GI50 [2]: 1.74 µM
TGI [2]: 3.41 µM
GI50 [3]: 4.5 µM
TGI [3]: 21.1 µM
GI50 [4]: 10.9 µM
TGI [4]: 26.2 µM
GI50 [5]: 10.5 µM
TGI [5]: 24 µM
GI50 [6]: 8.46 µM
TGI [6]: 21.5 µM
GI50 [7]: 7.55 µM
TGI [7]: 22.1 µM
GI50 [9]: 11.2 µM
TGI [9]: 23.7 µM
GI50 [10]: 17.2 µM
TGI [10]: 31.7 µM

COCCNc1ccc2c3c(cccc13)C(=O)N(CCN(C)C)C2=O
GI50 [1]: 4.11 µM
TGI [1]: > 25 µM
GI50 [2]: 4.64 µM
TGI [2]: > 25 µM
GI50 [3]: 4.98 µM
TGI [3]: 13 µM
GI50 [5]: 9.41 µM
TGI [5]: > 25 µM
GI50 [6]: 15.9 µM
TGI [6]: > 25 µM
GI50 [7]: 4.89 µM
TGI [7]: 19.5 µM
GI50 [8]: 4.76 µM
TGI [8]: 13.1 µM
GI50 [9]: 9.41 µM
TGI [9]: > 25 µM
GI50 [10]: 4.28 µM
TGI [10]: > 25 µM
